According to US10252984B2, “Inhibiting G protein coupled receptor 6 kinase polypeptides” (Mayo Foundation for Medical Education and Research, priority 2011, dated 2019):
pIC50: −log10 of the molar value.

Target: GRK6, recombinant full-length GST-tagged human protein (Homo sapiens (Human), UniProt P43250)
Experiment: GRK6 LabChip microfluidic mobility shift kinase assay
Format: biochemical
Details: for IC50 values of model inhibitors: at ATP Km, 12-pt dose response, duplicates, values only in FIG. 1
Method: […] All determinations were performed in duplicates. To obtain the IC50 values and the Hill coefficient, the 4-parameter logistic equation was fitted to the data by non-linear regression using XLFit software.

[1] = 8-point concentration-response, top concentration 60 μM, ATP 12 μM (Km)
[2] = GRK6 polypeptide inhibition assay, class symbols

Chain of GRK6, recombinant full-length GST-tagged human protein (P43250 whole entry): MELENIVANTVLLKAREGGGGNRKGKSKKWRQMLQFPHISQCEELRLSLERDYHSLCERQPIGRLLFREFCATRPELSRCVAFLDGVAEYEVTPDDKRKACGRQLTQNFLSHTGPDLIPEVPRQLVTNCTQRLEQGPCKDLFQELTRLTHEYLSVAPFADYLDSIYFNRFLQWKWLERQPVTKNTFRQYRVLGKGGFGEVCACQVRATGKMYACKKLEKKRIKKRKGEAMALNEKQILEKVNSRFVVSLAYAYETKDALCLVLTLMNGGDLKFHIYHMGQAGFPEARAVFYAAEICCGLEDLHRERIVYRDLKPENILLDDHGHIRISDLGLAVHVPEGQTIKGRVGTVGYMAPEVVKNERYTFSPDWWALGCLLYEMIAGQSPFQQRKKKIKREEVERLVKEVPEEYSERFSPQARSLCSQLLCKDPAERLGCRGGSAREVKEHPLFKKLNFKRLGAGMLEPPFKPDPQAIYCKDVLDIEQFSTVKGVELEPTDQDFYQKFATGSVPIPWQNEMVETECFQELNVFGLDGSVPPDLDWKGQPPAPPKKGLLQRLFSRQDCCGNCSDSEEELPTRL

Row | pIC50 [1] | Compound | also measured
1 | 5.36 | CCOc1cc(-c2ccc(O)c(O)c2)cc(=O)c2c(C)oc(C)c12 | 
2 | 4.92 | Cc1ccc([N+](=O)[O-])c(NC2OC(CO)C(O)C2O)c1 (stereo not drawn) | pIC50 [2]: 4.70 to 5.00
3 | 4.77 | Cc1cc2c(c(O)c1-c1c(C)cc3c(c1O)/C(=C/NCCCN1CCOCC1)C(=O)C(O)=C3C(C)C)/C(=C/NCCCN1CCOCC1)C(=O)C(O)=C2C(C)C | 
4 | 4.90 | C1=Nc2cccc3cccc(c23)N1 | 
5 | 6.01 | C=CCn1c(N)c(C(=O)OC)c2nc3ccccc3nc21 | 
6 | 5.15 | COc1ccc(-c2cc(=O)oc3c(O)c(O)ccc23)cc1 | 
7 | 4.98 | c1ccc(-c2ccc(C3=NN=C(NCc4ccco4)SC3)cc2)cc1 | 
8 | 5.06 | O=c1cc(-c2ccccc2)oc2cc(O)c(O)c(O)c12 | 
9 | 5.35 | CCOc1ccc(NC(c2ccccn2)c2ccc3cccnc3c2O)cc1 (stereo not drawn) | 
10 | 5.18 | O=c1cc(-c2ccc(O)cc2)oc2cc(O)c(O)c(O)c12 | 
11 | 4.90 | NC(=O)c1cc(N)c2c(c1N)C(=O)c1ccccc1C2=O | 
12 | 4.55 | Oc1ccc(-c2nc3ccc4ccccc4c3c3c2CCC3)cc1O | 
13 | < 4.22 | Cc1nc2ccccn2c1-c1csc(Nc2ccc(N)cc2)n1 | 
14 | 5.15 | Cc1cccc(NC2=NC(=O)/C(=C/c3ccc(O)c(O)c3)S2)c1C | 
15 | < 4.22 | O=S(=O)(Nc1ccc(-n2cnnn2)cc1)c1ccc(S(=O)(=O)N2CCCCCC2)cc1 | 
16 | 4.73 | CCN(CC)CCn1c2ccccc2c2cnc(N)c(C#N)c21 | 
17 | 5.55 | CCOC(=O)c1c(N)n(C2CC2)c2nc3ccccc3nc12 | 
18 | 4.75 | Nc1ccc(CCc2nc3cc(N)ccc3o2)cc1 | 
19 | 4.99 | Cc1cc2c(C(C)C)c(O)c(O)c(/C=N/CCCN3CCOCC3)c2c(O)c1-c1c(C)cc2c(C(C)C)c(O)c(O)c(/C=N/CCCN3CCOCC3)c2c1O | 
20 | 5.19 | N#CC1=C(N)Oc2cc(N)ccc2C1c1cc2cc3c(cc2nc1Cl)OCO3 (stereo not drawn) | 
21 | 5.17 | Oc1c(C(Nc2ccccn2)c2cccnc2)ccc2cccnc12 (stereo not drawn) | 
22 | < 4.22 | CCn1c(COc2ccccc2)nnc1SCCC(=O)O | 
23 | 5.34 | O=C(O)CSc1nnc(-c2cccs2)[nH]1 | 
24 | 5.47 | CCOc1cccc(=O)c2c(C)n(-c3ccc(C)cc3)c(C)c12 | 
25 |  | Cn1cc(C2=C(c3cn(CCCSC(=N)N)c4ccccc34)C(=O)NC2=O)c2ccccc21 [Ro-31-8220, reference compound] | IC50 values of model inhibitors: in good agreement with published data

Row | pIC50 [1] | Compound | also measured
26 | 4.39 | COc1cc(/C=C2/SC(=S)N(c3cccnc3)C2=O)ccc1O | 
27 | < 4.22 | Cc1ccc2nc(NC=O)sc2c1 | 
28 | 5.19 | Cc1cc(NC(c2ccccn2)c2ccc3cccnc3c2O)no1 (stereo not drawn) | 
29 | 5.59 | CCOc1cccc(=O)c2c(C)[nH]c(C)c12 | 
30 | 5.23 | O=C(O)CSc1nnc(-c2ccc(OC(F)(F)F)cc2)[nH]1 | 
31 | < 4.22 | COCCNC(=O)CN(C(=O)c1snc(C(N)=O)c1N)c1ccccc1 | 
32 | < 4.22 | Cc1ccc(-c2ccccc2NS(=O)(=O)c2ccc(S(=O)(=O)N3CCCCCC3)cc2)o1 | pIC50 [2]: < 4.70
33 | 4.59 | Cc1ccc(C2C(C#N)=C(N)Oc3cc(N)ccc32)cc1 (stereo not drawn) | 
34 |  | O=S(=O)(NCCNC/C=C/c1ccc(Br)cc1)c1cccc2cnccc12 [H89, reference compound] | IC50 values of model inhibitors: in good agreement with published data
35 | < 4.22 | O=C1Nc2ccc(S(=O)(=O)N3CCCCC3)c3cccc1c23 | 
36 | 5.18 | O=[N+]([O-])c1cc(C2=NN=C(NCc3ccco3)SC2)ccc1Cl | 
37 | < 4.22 | COc1ccc(-c2cnc(-c3cccnc3)o2)cc1 | 
38 | 5.00 | CCN(CC)c1ccc(C(c2c(C)n[nH]c2O)c2c(C)n[nH]c2O)cc1 | 
39 | 5.81 | CCCCn1c(N)c(C#N)c2nc3ccccc3nc21 | 
40 | 4.33 | Nc1ccc2c3c1C(=O)OC3(O)c1ccccc1C2=O (stereo not drawn) | 
41 | 5.84 | Cc1cccc(-c2nnc(SCC(=O)O)[nH]2)c1 | 
42 | 4.93 | N#CC1=C(N)Oc2cc(N)ccc2C1c1cccs1 (stereo not drawn) | 
43 | < 4.22 | CCNC(=S)N(CCO)Cc1cc2cc3c(cc2[nH]c1=O)OCO3 | 
44 | < 4.22 | CC(=O)Nc1ccc(Nc2nnc(-c3ccc(O)cc3)c3ccccc23)cc1 | 
45 | 5.86 | CN(C)c1ccc(O)c2c1CC1CC3[C@H](N(C)C)C(O)=C(C(N)=O)C(=O)[C@@]3(O)C(O)=C1C2=O (stereo partly drawn) | 
46 | 5.18 | O=C(O)c1ccc([C@@H]2Nc3ccc(I)cc3[C@@H]3C=CC[C@@H]32)cc1 | 
47 | 5.15 | CCOC(=O)c1ccc(CC(=O)c2ccc(O)c(O)c2O)o1 | 
48 | < 4.22 | CCCCC(CC)CNC(=O)c1ccc(N/N=C2\C(=O)Nc3ccc(Br)cc32)cc1 (stereo not drawn) | 
49 | 5.07 | CCN(CC)c1ccc(C2Nc3cccc4cccc(c34)N2)c(O)c1 | 
50 | < 4.22 | Oc1ccc(-c2nnc(NCCc3ccccc3)s2)cc1 | 

Row | Compound | pIC50 [1] | also measured
51 | CCCCCn1c(N)c(C(=O)OC)c2nc3ccccc3nc21 | 5.99 | 
52 | CCCCCCn1c(N)c(C(=O)OC)c2nc3ccccc3nc21 | 5.84 | 
